The results in this text go back to patent US20240398737A1, “FUNCTIONALIZED LONG-CHAIN HYDROCARBON MONO- AND DI-CARBOXYLIC ACIDS AND DERIVATIVES THEREOF, AND THEIR USE FOR THE PREVENTION OR TREATMENT OF DISEASE” (Espervita Therapeutics, Inc., priority 2021, published 2024).

“Also recorded” adds a separate entry of the source.

For one experiment, the target named is Aurora A (Homo sapiens (Human), UniProt O14965). The experiment can be described thus: Wild type kinase screen: Aurora A. Type of experiment: biochemical. To be noted: compound at 10 μM, 10 μM ATP, Data 1 and Data 2 duplicates.
Sequence of Aurora A (O14965 whole entry): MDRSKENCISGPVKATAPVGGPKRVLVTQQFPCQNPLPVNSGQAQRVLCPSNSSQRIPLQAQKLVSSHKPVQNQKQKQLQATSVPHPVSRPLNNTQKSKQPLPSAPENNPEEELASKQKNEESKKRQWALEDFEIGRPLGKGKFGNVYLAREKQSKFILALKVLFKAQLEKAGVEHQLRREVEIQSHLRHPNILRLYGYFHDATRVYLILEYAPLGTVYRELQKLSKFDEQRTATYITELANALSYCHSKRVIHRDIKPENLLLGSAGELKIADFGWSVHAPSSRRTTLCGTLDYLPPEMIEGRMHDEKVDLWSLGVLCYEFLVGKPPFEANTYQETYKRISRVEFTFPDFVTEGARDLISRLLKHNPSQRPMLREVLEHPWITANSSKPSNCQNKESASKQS
Another experiment addresses BMX/ETK (Homo sapiens (Human), UniProt P51813). As to the kind of experiment: Wild type kinase screen: BMX/ETK. The conditions noted are these: compound at 10 μM, 10 μM ATP, Data 1 and Data 2 duplicates. It counts as biochemical.
The target of another experiment is ERK7/MAPK15 (Homo sapiens (Human), UniProt Q8TD08). The experiment can be described thus: Wild type kinase screen: ERK7/MAPK15. Type of experiment: biochemical. The conditions noted are these: compound at 10 μM, 10 μM ATP, Data 1 and Data 2 duplicates.
Sequence of ERK7/MAPK15 (Q8TD08 whole entry): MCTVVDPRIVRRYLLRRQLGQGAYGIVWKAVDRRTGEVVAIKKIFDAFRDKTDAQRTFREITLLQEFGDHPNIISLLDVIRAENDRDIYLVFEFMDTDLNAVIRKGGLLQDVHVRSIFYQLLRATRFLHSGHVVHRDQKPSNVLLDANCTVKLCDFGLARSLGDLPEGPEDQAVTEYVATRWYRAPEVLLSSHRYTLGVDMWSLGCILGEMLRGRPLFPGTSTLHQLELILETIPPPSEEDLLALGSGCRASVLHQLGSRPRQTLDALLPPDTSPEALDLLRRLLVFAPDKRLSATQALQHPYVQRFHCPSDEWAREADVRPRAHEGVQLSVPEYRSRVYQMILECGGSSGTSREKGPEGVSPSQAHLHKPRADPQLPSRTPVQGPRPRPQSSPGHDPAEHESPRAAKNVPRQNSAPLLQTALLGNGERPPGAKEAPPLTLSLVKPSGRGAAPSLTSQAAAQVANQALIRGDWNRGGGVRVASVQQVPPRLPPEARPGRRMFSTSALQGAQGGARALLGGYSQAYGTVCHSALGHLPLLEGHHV
In another experiment the target is MELK (Homo sapiens (Human), UniProt Q14680). As to the kind of experiment: Wild type kinase screen: MELK. It counts as biochemical. To be noted: compound at 10 μM, 10 μM ATP, Data 1 and Data 2 duplicates.
Sequence of MELK (Q14680 whole entry, species assumed): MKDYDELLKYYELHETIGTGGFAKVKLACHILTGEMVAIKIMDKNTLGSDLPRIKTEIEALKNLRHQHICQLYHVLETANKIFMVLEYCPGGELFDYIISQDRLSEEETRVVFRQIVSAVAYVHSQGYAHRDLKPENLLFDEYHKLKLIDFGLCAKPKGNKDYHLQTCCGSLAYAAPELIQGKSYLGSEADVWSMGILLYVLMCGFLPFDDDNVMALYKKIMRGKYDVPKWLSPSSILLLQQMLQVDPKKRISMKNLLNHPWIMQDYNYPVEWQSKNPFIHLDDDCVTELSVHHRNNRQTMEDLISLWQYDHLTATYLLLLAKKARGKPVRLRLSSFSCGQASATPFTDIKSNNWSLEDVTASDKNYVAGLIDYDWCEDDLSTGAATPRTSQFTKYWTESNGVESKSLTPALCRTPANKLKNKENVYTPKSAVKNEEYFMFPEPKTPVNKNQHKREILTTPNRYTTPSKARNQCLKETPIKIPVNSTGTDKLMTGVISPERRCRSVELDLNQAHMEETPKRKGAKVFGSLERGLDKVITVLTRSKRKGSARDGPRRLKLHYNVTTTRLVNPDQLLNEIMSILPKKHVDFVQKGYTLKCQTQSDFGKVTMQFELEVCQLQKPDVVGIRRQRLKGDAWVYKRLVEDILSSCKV
The next experiment concerns the target human ACLY (Homo sapiens (Human), UniProt P53396). The experiment can be described thus: ATP-citrate lyase (ACLY) enzymatic assay (ADP-Glo). Set-up: key to Compound IC50 (M) ACLY: *: No detectable inhibition or compound activity. Type of experiment: biochemical. To be noted: recombinant human ACLY; 10 concentrations from 300 μM; Runs 1-3. The protocol:
ATP citrate lyase was obtained from Sino Biological Inc. Cat #11769-H07B, Lot #LC08DE1701. It was prepared from a DNA sequence encoding the human ACLY (P53396) (Met 1-Met 1101) expressed in Baculovirus-Insect Cells, with a polyhistidine tag at the N-terminus. The recombinant human ACLY consists of 1120 amino acids and has a calculated molecular mass of 123 kDa. It migrates as an approximately 110 kDa band in SDS-PAGE under reducing conditions. The enzyme came as a lyophilized powder in sterile 20 mM Tris, 500 mM NaCl, pH 8.0, 10% glycine. Normally 5%-8% trehalose and mannitol are added as protectants before lyophilization. The recombinant human ACLY from Sino Biological was formulated in 45 mM Tris-HCl, pH 8.0, 124 mM NaCl, 2.4 mM KCl, 18 mM glutathione, 10% glycerol, and 3 mM DTT.
To detect ADP produced from ACL assay, the ADP-Glo™ assay format from Promega, Madison, WI, was used, to detect the conversion of ATP to ADP. […] This assay is performed in two steps: i) after the ACL-mediated enzymatic reaction that utilizes ATP and produces ADP, ADP-Glo™ Reagent is added to terminate the kinase reaction and deplete the remaining ATP, and ii) the Kinase Detection Reagent is added to convert ADP to ATP and allow the newly synthesized ATP to be measured using a luciferase/luciferin reaction. The light generated, measured in a luminometer, correlates to the amount of ADP generated in the ACL assay, which is indicative of ACL activity.
Data represent nM or μM ADP produced, % Activity (relative to no inhibitor controls), and curve fits were performed by GraphPad Prism software. The IC50 concentration-response curves were generated for ADPGlo™ using recombinant human ACL from Sino Biologicals Inc.

For experiment [1], the system named is UUO-induced renal fibrosis. The experiment can be described thus: Murine unilateral ureter obstruction (UUO) renal fibrosis model. Type of experiment: in vivo, mouse. To be noted: 100 mg/kg oral gavage daily for 9 days after UUO, mice. The protocol: Animal studies were carried out in accordance with the principles of laboratory animal care of the Canadian Council on Animal Care guidelines. Male C57BL/6 mice were obtained from Charles Rivers Laboratories. FIG. 13A summarizes the timeline for this experiment. UUO model was created as follows: male C57BL6J mice (8 weeks old from Charles River Laboratories) were anesthetized with 4% isofluorane and an anesthetic plane was maintained throughout surgery at 1.5-2% isofluorane with 1 L/min oxygen. A 0.5 cm incision was made longitudinally on the left flank. The left ureter and lower pole of the kidney was exposed, and the ureter was ligated with a 6′0 silk suture in close proximity to the renal pelvis. A sham operation control group was created by surgical exposure of the left ureter and lower pole of the kidney followed by closure of the incision. Subcutaneous fluids were given (1.5 ml 0.9% NaCl) and the incision was closed with 4′0 silk sutures followed by staples for the skin. Starting the day of model creation, the animals were given a daily dose of either vehicle alone (sham surgery and UUO control, 1.5% CMC and 0.2% Tween-20) or vehicle containing Compound I-32 or Compound I-1 (at 100 mg/kg) by oral gavage for 9 days following surgery. At the end of the treatment period mice were anesthetized prior to euthanasia by bilateral thoraco-abdominal incision. Blood was collected by cardiac puncture, followed by kidney perfusion with cold saline through left ventricular cannulation. The left kidney was removed, a sample taken and fixed in formalin for histological analysis. Trichrome staining was done on formalin-fixed sections (4 μm) following deparaffinization according to manufacturer's instructions (Sigma HT15-1KT). Images were quantified by measuring the percentage of positive area using Image J on micrographs captured at x200 magnification using the BX41 Olympus microscope. Statistical analysis was performed using GraphPad Prism 8. A one-way ANOVA was used to determine significance. A p-value of less than or equal to 0.05 was used as the criterion of significance. This route was selected because it simulates oral administration to mammalian, including human, subjects and ensures that the correct dose of compound is ingested by each animal.
Immunohistochemistry. Formalin-fixed kidneys were embedded in paraffin, then sectioned at 4 μm. After deparaffinization, they were stained with Masson's trichrome to assess collagen content (Sigma Aldrich, catalogue no. HT15-1T), picrosirius red (PSR) to more specifically assess pathogenic collagens I and III (Polysciences, Inc., catalogue no. 24901-500), αSMA as a marker of activated, profibrotic fibroblasts (PIERCE, catalogue no. MA1-06110; 30 min steaming for antigen retrieval, antibody used at 1:5000 for 2 h at room temperature), CD3 to identify T-lymphocytes (Dako, catalogue no. A0452; 30 min steaming for antigen retrieval, antibody used at 1:500 overnight at 4° C.) and F4/80 to identify macrophages (done by the McMaster Histology Facility). Slides were counterstained with hematoxylin, dehydrated twice with 90% ethanol, cleared twice with xylene, coverslipped with mounting media, and then left to dry overnight before imaging. Masson's trichrome, αSMA, CD3 and F4/80 were imaged under transmitted light and quantified using ImageJ. The Olympus IX81 fluorescence microscope driven by Metamorph was used to image and quantify PSR staining. Images were quantified by measuring the percentage of positive area. All micrographs were captured at x20 magnification.

Sequence of BMX/ETK (P51813 whole entry): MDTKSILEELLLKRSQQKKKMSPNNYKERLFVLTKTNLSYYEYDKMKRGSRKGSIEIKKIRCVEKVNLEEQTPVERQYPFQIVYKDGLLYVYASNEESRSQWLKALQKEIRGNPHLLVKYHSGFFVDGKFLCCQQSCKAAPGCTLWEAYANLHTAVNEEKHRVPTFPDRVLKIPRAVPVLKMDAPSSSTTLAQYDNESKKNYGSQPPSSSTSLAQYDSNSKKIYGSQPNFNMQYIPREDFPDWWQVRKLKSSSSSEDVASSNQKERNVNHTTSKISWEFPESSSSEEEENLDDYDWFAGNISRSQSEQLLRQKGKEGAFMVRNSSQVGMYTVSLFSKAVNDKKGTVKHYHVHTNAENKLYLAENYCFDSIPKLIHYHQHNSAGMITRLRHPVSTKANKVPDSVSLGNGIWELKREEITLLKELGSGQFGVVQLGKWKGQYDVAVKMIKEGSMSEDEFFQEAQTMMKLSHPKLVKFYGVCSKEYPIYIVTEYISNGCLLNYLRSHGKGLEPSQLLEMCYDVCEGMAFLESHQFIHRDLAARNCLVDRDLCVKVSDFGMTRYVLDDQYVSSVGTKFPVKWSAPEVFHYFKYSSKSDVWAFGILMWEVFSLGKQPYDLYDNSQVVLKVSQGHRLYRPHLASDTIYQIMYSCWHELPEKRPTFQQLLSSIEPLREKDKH
Sequence of human ACLY (P53396 whole entry): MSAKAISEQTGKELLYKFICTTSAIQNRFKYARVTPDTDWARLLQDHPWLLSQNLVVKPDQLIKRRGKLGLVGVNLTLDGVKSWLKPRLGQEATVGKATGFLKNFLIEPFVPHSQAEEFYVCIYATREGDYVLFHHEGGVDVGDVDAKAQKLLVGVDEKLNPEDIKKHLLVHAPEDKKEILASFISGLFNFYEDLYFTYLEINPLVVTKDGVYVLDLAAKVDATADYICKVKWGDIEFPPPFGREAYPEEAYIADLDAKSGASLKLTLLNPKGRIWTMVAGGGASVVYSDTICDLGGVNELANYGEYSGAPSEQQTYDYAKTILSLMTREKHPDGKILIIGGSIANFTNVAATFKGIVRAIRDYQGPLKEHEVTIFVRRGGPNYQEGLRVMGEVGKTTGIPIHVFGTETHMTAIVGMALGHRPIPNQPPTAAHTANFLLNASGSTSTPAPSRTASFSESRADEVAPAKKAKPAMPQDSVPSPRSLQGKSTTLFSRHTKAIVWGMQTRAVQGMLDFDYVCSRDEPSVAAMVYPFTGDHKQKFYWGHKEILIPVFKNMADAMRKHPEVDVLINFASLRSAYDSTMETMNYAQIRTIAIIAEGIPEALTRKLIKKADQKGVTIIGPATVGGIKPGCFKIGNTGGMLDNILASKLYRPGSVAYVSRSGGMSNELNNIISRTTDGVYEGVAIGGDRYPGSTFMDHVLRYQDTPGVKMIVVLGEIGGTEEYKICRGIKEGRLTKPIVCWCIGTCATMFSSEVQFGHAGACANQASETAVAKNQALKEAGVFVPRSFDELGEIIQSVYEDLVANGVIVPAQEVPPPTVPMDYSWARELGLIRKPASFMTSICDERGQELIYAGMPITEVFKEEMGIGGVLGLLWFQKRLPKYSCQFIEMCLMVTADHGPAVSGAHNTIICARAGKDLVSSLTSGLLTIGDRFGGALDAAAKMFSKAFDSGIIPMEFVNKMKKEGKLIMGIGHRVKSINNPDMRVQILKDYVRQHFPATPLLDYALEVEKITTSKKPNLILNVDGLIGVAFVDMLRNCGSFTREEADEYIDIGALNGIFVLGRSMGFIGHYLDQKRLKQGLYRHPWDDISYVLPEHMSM

In the case of `CC(C)(CCCCc1ccc(CCCCC(C)(C)C(=O)O)cc1)C(=O)O` [Compound I-1, 6-[4-(5-carboxy-5-methylhexyl)-phenyl]-2,2-dimethylhexanoic acid], the “% Enzyme Activity (relative to DMSO controls)” value at Aurora A came to 83.92%. At BMX/ETK, the “% Enzyme Activity (relative to DMSO controls)” value stood at 51.72%. The “% Enzyme Activity (relative to DMSO controls)” value on ERK7/MAPK15 is on record as 100.06%. Moreover, on MELK, the “% Enzyme Activity (relative to DMSO controls)” value turned out to be 106.55%. The “Compound IC50 (M) ACLY” value at human ACLY is given as “*”. In addition, in experiment [1], the “Markers of fibrosis / UUO-induced renal fibrosis” value was “attenuated”, the “Renal T-lymphocyte infiltration (CD3 stain)” value is “no effect; also recorded: unaffected”, the “Renal macrophage infiltration (F4/80 stain)” value is “significantly reduced; also recorded: similarly effective in decreasing” and the “Trichrome staining (kidney fibrosis)” value is “decreased”. The “αSMA staining (kidney fibrosis)” value in experiment [1] is listed as “decreased”.

For the compound `CC(C)(CCCCc1cccc(CCCCC(C)(C)C(=O)O)c1)C(=O)O` [Compound I-32, 6-[3-(5-carboxy-5-methylhexyl)-phenyl]-2,2-dimethylhexanoic acid], the “% Enzyme Activity (relative to DMSO controls)” value on Aurora A turned out to be 93.33%. Also, at BMX/ETK, the “% Enzyme Activity (relative to DMSO controls)” value amounted to 52.97%. Further, the “% Enzyme Activity (relative to DMSO controls)” value on ERK7/MAPK15 is listed as 102.21%. The “% Enzyme Activity (relative to DMSO controls)” value on MELK is listed as 110.73%. For the same compound, the “Compound IC50 (M) ACLY” value at human ACLY is “*”. Besides, in experiment [1], the “Markers of fibrosis / UUO-induced renal fibrosis” value is listed as “attenuated”, the “Renal T-lymphocyte infiltration (CD3 stain)” value was “no effect; also recorded: unaffected”, the “Renal macrophage infiltration (F4/80 stain)” value is “significantly reduced; also recorded: similarly effective in decreasing” and the “Trichrome staining (kidney fibrosis)” value is listed as “trend to reduction”. In addition, in experiment [1], the “αSMA staining (kidney fibrosis)” value is recorded as “trend to reduction”.
